Assay results published in PubChem BioAssay (NCI).
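How tested: cells in 96-well plates exposed to compound for 48 hours at five concentrations. TGI is the concentration that stops growth completely.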

Columns and labels:
Test in all cases: inhibition of tumour cell growth, NCI panel, 48 h
[1] = tested on: CCRF-CEM leukemia
[2] = tested on: HCT-15 colon
[3] = tested on: COLO 205 colon
[4] = tested on: UO-31 renal
[5] = tested on: A549 NSCLC
[6] = tested on: MALME-3M melanoma
[7] = tested on: NCI-H460 lung
[8] = tested on: M14 melanoma
[9] = tested on: SK-MEL-2 melanoma
[10] = tested on: MDA-MB-231 breast
[11] = tested on: SW-620 colon
[12] = tested on: SR leukemia
[13] = tested on: EKVX NSCLC
[14] = tested on: U251 CNS
[15] = tested on: SK-OV-3 ovarian
[16] = tested on: SN12C renal
[17] = tested on: TK-10 renal
[18] = tested on: OVCAR-8 ovarian
[19] = tested on: PC-3 prostate
[20] = tested on: HOP-62 NSCLC
[21] = tested on: SNB-19 CNS
[22] = tested on: RPMI-8226 leukemia
[23] = tested on: SNB-75 CNS
[24] = tested on: A498 renal
[25] = tested on: OVCAR-3 ovarian
[26] = tested on: IGROV1 ovarian
[27] = tested on: DU-145 prostate
[28] = tested on: SF-268 CNS
[29] = tested on: SK-MEL-28 melanoma
[30] = tested on: MDA-MB-435
[31] = tested on: OVCAR-5 ovarian
[32] = tested on: MCF7 breast
[33] = tested on: CAKI-1 renal
[34] = tested on: ACHN renal
[35] = tested on: HCT-116 colon
[36] = tested on: UACC-257 melanoma
[37] = tested on: NCI/ADR-RES ovarian
[38] = tested on: SK-MEL-5 melanoma
[39] = tested on: 786-0 renal
[40] = tested on: SF-539 CNS
[41] = tested on: RXF 393 renal
[42] = tested on: HL-60(TB) leukemia
[43] = tested on: UACC-62 melanoma
[44] = tested on: T-47D breast
[45] = tested on: HCC-2998 colon
[46] = tested on: MDA-N
[47] = tested on: HT29 colon
[48] = tested on: MOLT-4 leukemia
[49] = tested on: KM12 colon
[50] = tested on: BT-549 breast
[51] = tested on: K-562 leukemia
[52] = tested on: NCI-H23 lung
[53] = tested on: SF-295 CNS
[54] = tested on: LOX IMVI melanoma
[55] = tested on: HS 578T breast
[56] = tested on: OVCAR-4 ovarian

**Q.** How did the TGI [1] turn out when `O=C1N[C@H]2c3c(Cl)sc(Cl)c3[C@@H](O)[C@H]2O1` was run?
**A.** > 100 µM

**Q.** And the TGI [2]?
**A.** > 100 µM

**Q.** And the TGI [3]?
**A.** > 100 µM

**Q.** What about the TGI [4] of the same molecule?
**A.** > 100 µM

**Q.** What about the TGI [5] of the same molecule?
**A.** > 100 µM

**Q.** And the TGI [6]?
**A.** > 100 µM

**Q.** And the TGI [7]?
**A.** > 100 µM

**Q.** What about the TGI [8] of the same molecule?
**A.** > 100 µM

**Q.** And the TGI [9]?
**A.** > 100 µM

**Q.** And the TGI [10]?
**A.** > 100 µM

**Q.** And the TGI [11]?
**A.** > 100 µM

**Q.** What about the TGI [12] of the same molecule?
**A.** > 100 µM

**Q.** What about the TGI [13] of the same molecule?
**A.** > 100 µM

**Q.** What about the TGI [14] of the same molecule?
**A.** > 100 µM

**Q.** And the TGI [15]?
**A.** > 100 µM

**Q.** And the TGI [16]?
**A.** > 100 µM

**Q.** What about the TGI [17] of the same molecule?
**A.** > 100 µM

**Q.** And the TGI [18]?
**A.** > 100 µM

**Q.** What about the TGI [19] of the same molecule?
**A.** > 100 µM

**Q.** What about the TGI [20] of the same molecule?
**A.** > 100 µM

**Q.** What about the TGI [21] of the same molecule?
**A.** > 100 µM

**Q.** What about the TGI [22] of the same molecule?
**A.** > 100 µM

**Q.** And the TGI [23]?
**A.** > 100 µM

**Q.** What about the TGI [24] of the same molecule?
**A.** > 100 µM

**Q.** What about the TGI [25] of the same molecule?
**A.** > 100 µM

**Q.** What about the TGI [26] of the same molecule?
**A.** > 100 µM

**Q.** What about the TGI [27] of the same molecule?
**A.** > 100 µM

**Q.** And the TGI [28]?
**A.** > 100 µM

**Q.** And the TGI [29]?
**A.** > 100 µM

**Q.** And the TGI [30]?
**A.** > 100 µM

**Q.** What about the TGI [31] of the same molecule?
**A.** > 100 µM

**Q.** What about the TGI [32] of the same molecule?
**A.** > 100 µM

**Q.** What about the TGI [33] of the same molecule?
**A.** > 100 µM

**Q.** And the TGI [34]?
**A.** > 100 µM

**Q.** And the TGI [35]?
**A.** > 100 µM

**Q.** And the TGI [36]?
**A.** > 100 µM

**Q.** What about the TGI [37] of the same molecule?
**A.** > 100 µM

**Q.** What about the TGI [38] of the same molecule?
**A.** > 100 µM

**Q.** And the TGI [39]?
**A.** > 100 µM

**Q.** What about the TGI [40] of the same molecule?
**A.** > 100 µM

**Q.** And the TGI [41]?
**A.** > 100 µM

**Q.** And the TGI [42]?
**A.** > 100 µM

**Q.** What about the TGI [43] of the same molecule?
**A.** > 100 µM

**Q.** What about the TGI [44] of the same molecule?
**A.** > 100 µM

**Q.** And the TGI [45]?
**A.** > 100 µM

**Q.** And the TGI [46]?
**A.** > 100 µM

**Q.** And the TGI [47]?
**A.** > 100 µM

**Q.** What about the TGI [48] of the same molecule?
**A.** > 100 µM

**Q.** And the TGI [49]?
**A.** > 100 µM

**Q.** What about the TGI [50] of the same molecule?
**A.** > 100 µM

**Q.** And the TGI [51]?
**A.** > 100 µM

**Q.** Which TGI [1] does the source give for `CCOCc1c(C)cc(C)c(C2C(C(=O)c3ccccc3)N3c4ccccc4C=CC3C2(C#N)C(=O)OCC)c1C` (stereo unspecified) here?
**A.** > 100 µM

**Q.** What about the TGI [2] of the same molecule?
**A.** > 100 µM

**Q.** What about the TGI [3] of the same molecule?
**A.** 53.7 µM

**Q.** What about the TGI [52] of the same molecule?
**A.** > 100 µM

**Q.** And the TGI [4]?
**A.** > 100 µM

**Q.** And the TGI [7]?
**A.** > 100 µM

**Q.** What about the TGI [53] of the same molecule?
**A.** > 100 µM

**Q.** What about the TGI [8] of the same molecule?
**A.** > 100 µM

**Q.** What about the TGI [11] of the same molecule?
**A.** > 100 µM

**Q.** And the TGI [12]?
**A.** > 100 µM

**Q.** And the TGI [13]?
**A.** 67.3 µM

**Q.** And the TGI [54]?
**A.** > 100 µM

**Q.** What about the TGI [14] of the same molecule?
**A.** > 100 µM

**Q.** And the TGI [16]?
**A.** > 100 µM

**Q.** And the TGI [19]?
**A.** > 100 µM

**Q.** What about the TGI [21] of the same molecule?
**A.** > 100 µM

**Q.** And the TGI [22]?
**A.** > 100 µM

**Q.** And the TGI [24]?
**A.** > 100 µM

**Q.** And the TGI [25]?
**A.** > 100 µM

**Q.** And the TGI [26]?
**A.** 46.5 µM

**Q.** What about the TGI [27] of the same molecule?
**A.** > 100 µM

**Q.** What about the TGI [28] of the same molecule?
**A.** > 100 µM

**Q.** What about the TGI [29] of the same molecule?
**A.** > 100 µM

**Q.** What about the TGI [55] of the same molecule?
**A.** > 100 µM

**Q.** What about the TGI [30] of the same molecule?
**A.** > 100 µM

**Q.** And the TGI [31]?
**A.** > 100 µM

**Q.** And the TGI [32]?
**A.** > 100 µM

**Q.** And the TGI [33]?
**A.** > 100 µM

**Q.** What about the TGI [34] of the same molecule?
**A.** > 100 µM

**Q.** What about the TGI [35] of the same molecule?
**A.** > 100 µM

**Q.** What about the TGI [36] of the same molecule?
**A.** > 100 µM

**Q.** And the TGI [37]?
**A.** > 100 µM

**Q.** And the TGI [38]?
**A.** 33.2 µM

**Q.** And the TGI [39]?
**A.** > 100 µM

**Q.** What about the TGI [56] of the same molecule?
**A.** > 100 µM

**Q.** And the TGI [41]?
**A.** > 100 µM

**Q.** And the TGI [42]?
**A.** > 100 µM

**Q.** And the TGI [43]?
**A.** > 100 µM

**Q.** And the TGI [45]?
**A.** 47.8 µM

**Q.** And the TGI [46]?
**A.** 87 µM

**Q.** What about the TGI [47] of the same molecule?
**A.** > 100 µM

**Q.** What about the TGI [48] of the same molecule?
**A.** > 100 µM

**Q.** And the TGI [49]?
**A.** 54.9 µM

**Q.** And the TGI [50]?
**A.** 75.8 µM

**Q.** And the TGI [51]?
**A.** > 100 µM
